Laboratory results: ChEMBL document CHEMBL4043165, “Synthesis, estrogen receptor binding affinity and molecular docking of pyrimidine-piperazine-chromene and -quinoline conjugates” (Bioorg Med Chem Lett, 2017)

Tests used:
Type in all cases: cell-based
[1] = Modulation activity at ER in human MCF7 cells assessed as reduction in cell viability after 48 hrs by MTT assay; details: MCF7, 48 h
HEK-293T [2] = experiment: Cytotoxicity against HEK293T cells assessed as reduction in cell viability at <50 uM after 48 hrs by MTT assay; details: human
HEK-293T [3] = experiment: Cytotoxicity against HEK293T cells assessed as reduction in cell viability after 48 hrs by MTT assay; details: Homo sapiens
HEK-293T [4] = experiment: Cytotoxicity against HEK293T cells assessed as reduction in cell viability up to 50 uM after 48 hrs by MTT assay; details: human

## Cc1nc(Oc2ccc3c(c2)OC(N)=C(C#N)C3c2ccc(F)cc2)cc(N2CCN(CCO)CC2)n1 (stereo unspecified)
[1]
  IC50: 166 µM
HEK-293T [2]
  Activity: Toxic
HEK-293T [3]
  IC50: 52 µM

## COc1ccc(C2C(C#N)=C(N)Oc3cc(Oc4cc(N5CCN(CCO)CC5)nc(C)n4)ccc32)cc1 (stereo unspecified)
[1]
  IC50: 104 µM
HEK-293T [2]
  Activity: Toxic
HEK-293T [3]
  IC50: 55 µM

## COc1cccc(C2C(C#N)=C(N)Nc3cc(Oc4cc(N5CCN(CCO)CC5)nc(C)n4)ccc32)c1 (stereo unspecified)
[1]
  IC50: 166 µM
HEK-293T [2]
  Activity: Toxic
HEK-293T [3]
  IC50: 39 µM

## Cc1nc(Oc2ccc3c(c2)OC(N)=C(C#N)C3c2ccccc2Cl)cc(N2CCN(CCO)CC2)n1 (stereo unspecified)
[1]
  IC50: 119 µM
HEK-293T [2]
  Activity: Toxic
HEK-293T [3]
  IC50: 79 µM

## Cc1nc(Oc2ccc3c(c2)OC(N)=C(C#N)C3c2ccc(Cl)cc2)cc(N2CCN(CCO)CC2)n1 (stereo unspecified)
[1]
  IC50: 73 µM
HEK-293T [2]
  Activity: Toxic
HEK-293T [3]
  IC50: 18 µM

## Cc1nc(Oc2ccc3c(c2)NC(N)=C(C#N)C3c2ccc(F)cc2)cc(N2CCN(CCO)CC2)n1 (stereo unspecified)
[1]
  IC50: 48 µM
HEK-293T [2]
  Activity: Toxic
HEK-293T [3]
  IC50: 72 µM

## COc1ccc(C2C(C#N)=C(N)Nc3cc(Oc4cc(N5CCN(CCO)CC5)nc(C)n4)ccc32)cc1 (stereo unspecified)
[1]
  IC50: 12 µM
HEK-293T [2]
  Activity: Toxic
HEK-293T [3]
  IC50: 62 µM

## Cc1nc(Oc2ccc3c(c2)NC(N)=C(C#N)C3c2ccccc2)cc(N2CCN(CCO)CC2)n1 (stereo unspecified)
[1]
  IC50: 65 µM
HEK-293T [4]
  Activity: Non-Toxic
HEK-293T [3]
  IC50: 141 µM

## Cc1nc(Oc2ccc3c(c2)NC(N)=C(C#N)C3c2ccc(Br)cc2)cc(N2CCN(CCO)CC2)n1 (stereo unspecified)
[1]
  IC50: 193 µM
HEK-293T [2]
  Activity: Toxic
HEK-293T [3]
  IC50: 62 µM

## Cc1nc(Oc2ccc3c(c2)OC(N)=C(C#N)C3c2ccc([N+](=O)[O-])cc2)cc(N2CCN(CCO)CC2)n1 (stereo unspecified)
[1]
  IC50: 30 µM
HEK-293T [4]
  Activity: Non-Toxic
HEK-293T [3]
  IC50: 105 µM

## Cc1nc(Oc2ccc3c(c2)OC(N)=C(C#N)C3c2ccccc2C)cc(N2CCN(CCO)CC2)n1 (stereo unspecified)
[1]
  IC50: 61 µM
HEK-293T [2]
  Activity: Toxic
HEK-293T [3]
  IC50: 56 µM

## Cc1nc(Oc2ccc3c(c2)NC(N)=C(C#N)C3c2ccccc2Cl)cc(N2CCN(CCO)CC2)n1 (stereo unspecified)
[1]
  IC50: 190 µM
HEK-293T [2]
  Activity: Toxic
HEK-293T [3]
  IC50: 70 µM

## Cc1ccc(C2C(C#N)=C(N)Oc3cc(Oc4cc(N5CCN(CCO)CC5)nc(C)n4)ccc32)cc1 (stereo unspecified)
[1]
  IC50: 16 µM
HEK-293T [4]
  Activity: Non-Toxic
HEK-293T [3]
  IC50: > 200 µM

## Cc1nc(Oc2ccc3c(c2)NC(N)=C(C#N)C3c2c(Cl)cccc2Cl)cc(N2CCN(CCO)CC2)n1 (stereo unspecified)
[1]
  IC50: 102 µM
HEK-293T [2]
  Activity: Toxic
HEK-293T [3]
  IC50: 62 µM

## Cc1nc(Oc2ccc3c(c2)OC(N)=C(C#N)C3c2ccccc2)cc(N2CCN(CCO)CC2)n1 (stereo unspecified)
[1]
  IC50: 92 µM
HEK-293T [4]
  Activity: Non-Toxic
HEK-293T [3]
  IC50: > 200 µM

## Cc1ccc(C2C(C#N)=C(N)Nc3cc(Oc4cc(N5CCN(CCO)CC5)nc(C)n4)ccc32)cc1 (stereo unspecified)
[1]
  IC50: 48 µM
HEK-293T [4]
  Activity: Non-Toxic
HEK-293T [3]
  IC50: 140 µM

## Cc1nc(Oc2ccc3c(c2)OC(N)=C(C#N)C3c2ccc(Br)cc2)cc(N2CCN(CCO)CC2)n1 (stereo unspecified)
[1]
  IC50: 91 µM
HEK-293T [2]
  Activity: Toxic
HEK-293T [3]
  IC50: 19 µM

## Cc1nc(Oc2ccc3c(c2)NC(N)=C(C#N)C3c2ccccc2C)cc(N2CCN(CCO)CC2)n1 (stereo unspecified)
[1]
  IC50: 198 µM
HEK-293T [2]
  Activity: Toxic
HEK-293T [3]
  IC50: 57 µM

## Cc1nc(Oc2ccc3c(c2)NC(N)=C(C#N)C3c2ccc(Cl)cc2)cc(N2CCN(CCO)CC2)n1 (stereo unspecified)
[1]
  IC50: 170 µM
HEK-293T [2]
  Activity: Toxic
HEK-293T [3]
  IC50: 95 µM

## Cc1nc(Oc2ccc3c(c2)OC(N)=C(C#N)C3c2c(Cl)cccc2Cl)cc(N2CCN(CCO)CC2)n1 (stereo unspecified)
[1]
  IC50: 136 µM
HEK-293T [2]
  Activity: Toxic
HEK-293T [3]
  IC50: 51 µM

## COc1cc(/C=C/C(=O)CC(=O)/C=C/c2ccc(O)c(OC)c2)ccc1O [CURCUMIN]
HEK-293T [3]
  IC50: > 400 µM
